Reference: patent US9469632B2, “6-substituted-3H-1,3-benzothiazol-2-one compounds as TARP-gamma 8 dependent AMPA receptor antagonists” (Eli Lilly and Company, priority 2014, dated 2016)
“And” between values parts separate entries of the source, which are not always exact repeats. Equal values may be shown once.

How the values were obtained:
[1] = biological target: T1, TARP γ8 dependent GluA1 flop receptors (Homo sapiens, UniProt P42261+Q8WXS5); experiment: FLIPR antagonist functional assay, GluA1 flop co-expressed with TARP γ8 in CHO-S cells; type: cell-based; details: glutamate 45 μM plus CTZ 20 μM, read-out: relative IC50, inhibition of glutamate plus CTZ activation of TARP γ8 dependent GluA1 flop receptors
T1 construct: expressed in transfected cells; host or cells: CHO-S (Invitrogen), transient transfection
Experimental: (§1) Briefly, CHO-S (Invitrogen) cells are grown in suspension in 50/50 custom media to a density of 1×10^7 cells/ml. (50/50 custom media is a low calcium media made as a 1:1 (v/v) mixture of CD CHO media (Gibco #10743) and a custom complete media. The custom complete media is made by adding 0.40 mg/L tropolone, 5.00 mg/L insulin, 20 mM HEPES, and 0.075% Pluronic® F68 to a custom basal media having the following formula: (values as mg/L unless otherwise specified) 11.01 anhydrous calcium chloride, 0.050 ferric nitrate-9H2O, 0.420 ferrous sulfate-7H2O, 28.64 anhydrous magnesium chloride, 48.84 anhydrous magnesium sulfate, 312.14 KCl, 5505.96 NaCl, 62.57 monobasic sodium phosphate, 71.28 anhydrous dibasic sodium phosphate, 0.432 zinc sulfate-7H2O, 10.0 ethanolamine HCl, 6000 D-glucose (dextrose), 0.210 DL lipoic acid thioctic, 0.081 putrescine 2 HCl, 4.78 sodium hypoxanthine, 220.24 sodium pyruvate, 0.730 thymidine, 8.90 L-alanine, 211.23 L-arginine HCl, 15.02 L-asparagine H2O, 13.31 L-aspartic acid, 62.67 cystine 2 HCl, 7.360 L-glutamic acid, 146.16 L-Glutamine, 30.0 gylicine, 42.04 L-histidine HCl 2 H2O, 105.11 L-isoluecine, 105.11 L-luecine, 146.16 L-lysine HCl, 30.03 L-methionine, 66.07 L-phenylalanine, 17.27 L-proline, 42.04 L-serine, 95.1 L-threonine, 16.02 L-typtophan, 104.11 L-tyrosine disodium salt, 94.1 L-valine, 8.99 choline chloride, 4.00 folic acid, 12.61 I inositol, 4.00 niacinamide, 4.00 pyridoxal HCl, 0.031 pyridoxine HCl, 0.400 riboflavin, 4.00 sodium pantothenate, 4.00 thiamine HCl, 0.680 vitamin B 12, and 2200 sodium bicarbonate.) Cells are centrifuged at 1000×g for […] and resuspended in fresh 50/50 custom media at 2×10^6 cells/ml. For batch transfection, 2 mg of total DNA(s) is used for each liter of cells. For GluA1-γ8 transfection of CHO-S cells, human GluA1 Qflop-Cacng8-pBudCE4.1 DNA (Qiagen) and human EAAT3 pAN104 DNA (Qiagen, a […]) are mixed in a ratio of 2:3. For GluA1-γ2 transfection of CHO-S cells, human GluA1 Qflop-Cacng2-pBudCE4.1 (Qiagen) is used. For GluA1 flip transfection of CHO-S cells, human GluA1 flip pcDNA3.1 DNA (Qiagen) is used. DNA(s) and FreeStyle™ MAX Reagent (Invitrogen cat#16447-500) are added to basal custom media (see above) in the proportions of 10 μg total DNA: 10 plFreeStyleTm MAX Reagent: 1 ml media, to form a DNA complex. […]
(§2) Frozen transfected CHO-S cells expressing AMPA receptors are thawed and plated in Dulbecco's Modified Eagle Media (DMEM media) (Gibco, cat#11960) containing 5% dialyzed Fetal Bovine Serum (Gibco, cat#26400-036) and 20 mM HEPES at 50,000 cells per well in 384-well Poly-D-lysine coated plates (Becton Dickinson, cat#354663) and cultured overnight at 37° C. On the day of an experiment, two fluorescence dye loading buffers are prepared. […]

[2] = biological target: T2, TARP γ2 dependent GluA1 flop receptors (Homo sapiens, UniProt P42261+Q9Y698); experiment: FLIPR antagonist functional assay, GluA1 flop co-expressed with TARP γ2 in CHO-S cells; type: cell-based; details: glutamate 45 μM plus CTZ 20 μM, assay limit of 9260 nM
T2 construct: expressed in transfected cells; host or cells: CHO-S (Invitrogen), transient transfection
Experimental: as §1, §2

[3] = biological target: T3, GluA1 flip isoform devoid of TARP (Homo sapiens, UniProt P42261); experiment: FLIPR antagonist functional assay, GluA1 flip expressed without TARP in CHO-S cells; type: cell-based; details: glutamate 45 μM plus CTZ 20 μM, assay limit of 9260 nM
T3 construct: expressed in transfected cells; host or cells: CHO-S (Invitrogen), transient transfection
Experimental: as §1, §2

[4] = system: formalin induced pain; experiment: Manual formalin induced pain model; type: in vivo; details: mice, p.o.
Experimental: The manual formalin induced pain model is well known for screening compounds for analgesic properties (Mogil J. S. et al., Heritability of nociception I: Responses of 11 inbred mouse strains on 12 measures of nociception. Pain 80 (1999) 67-82). The assay is performed in Plexiglas® boxes approx. 10 cm×10 cm×10 cm in size. A minor placed at the back of the cage allows the unhindered observation of the formalin injected paw. Non-fasted male mice (Harlan (HSD) CD1-Icr) are placed individually in the cubicles at least 60 min. prior to the experiment. All testing is conducted between 08:00 and 16:00 hr. and the testing room temperature is maintained at 21-23° C. […] Formalin (20 uL of a 5% solution in 0.9% saline) is injected subcutaneously into the plantar surface of the left hind paw with a 27 gauge needle. Observation starts immediately after the formalin injection. Formalin induced pain is quantified by recording the number of seconds each licking event lasts in 5 min intervals. The pain scoring is measured for 60 min. after the formalin injection. Two phases of pain behavior are observed as previously described (Wheeler-Aceto, H., Porreca, F. and Cowan, A., The rat paw formalin test: comparison of noxious agents, Pain 40 (1990) 229-238). The early phase starts immediately after the formalin injection and lasts approximately 5 min., followed by the late phase that starts between minutes 10-15 with a maximum response typically observed around 25-40 min after the formalin injection. After the 60 min. observation period, animals are sacrificed with CO2 followed by cervical dislocation. Of the different scoring parameters reported for the formalin test, the total time spent licking and biting the injected paw is considered to be most relevant. (Abbott et al., The formalin test: scoring properties of the first and second phases of the pain response in rats, Pain 60 (1995) 91-102; Coderre et al., The formalin test: a validation of the weighted-scores method of the behavioral pain rating, Pain 54 (1993) 43-50).) The early phase score is the sum of time spent licking (seconds) from time 0 to 5 min. The late phase score is obtained by adding the total number of seconds spent licking from minute 15 to min 55 of the observation period. Data are presented as means with standard errors of means (±SEM). Data are evaluated by one-way analysis of variance (ANOVA) and the appropriate contrasts analyzed by Dunnett “t” test for two sided comparisons. Differences are considered to be significant if the P-value is less than 0.05. (Abbott, supra.; Coderre, supra.; and Wheeler-Aceto, supra.)

T3 sequence (P42261 19-906 isoform P42261-2 limits assumed): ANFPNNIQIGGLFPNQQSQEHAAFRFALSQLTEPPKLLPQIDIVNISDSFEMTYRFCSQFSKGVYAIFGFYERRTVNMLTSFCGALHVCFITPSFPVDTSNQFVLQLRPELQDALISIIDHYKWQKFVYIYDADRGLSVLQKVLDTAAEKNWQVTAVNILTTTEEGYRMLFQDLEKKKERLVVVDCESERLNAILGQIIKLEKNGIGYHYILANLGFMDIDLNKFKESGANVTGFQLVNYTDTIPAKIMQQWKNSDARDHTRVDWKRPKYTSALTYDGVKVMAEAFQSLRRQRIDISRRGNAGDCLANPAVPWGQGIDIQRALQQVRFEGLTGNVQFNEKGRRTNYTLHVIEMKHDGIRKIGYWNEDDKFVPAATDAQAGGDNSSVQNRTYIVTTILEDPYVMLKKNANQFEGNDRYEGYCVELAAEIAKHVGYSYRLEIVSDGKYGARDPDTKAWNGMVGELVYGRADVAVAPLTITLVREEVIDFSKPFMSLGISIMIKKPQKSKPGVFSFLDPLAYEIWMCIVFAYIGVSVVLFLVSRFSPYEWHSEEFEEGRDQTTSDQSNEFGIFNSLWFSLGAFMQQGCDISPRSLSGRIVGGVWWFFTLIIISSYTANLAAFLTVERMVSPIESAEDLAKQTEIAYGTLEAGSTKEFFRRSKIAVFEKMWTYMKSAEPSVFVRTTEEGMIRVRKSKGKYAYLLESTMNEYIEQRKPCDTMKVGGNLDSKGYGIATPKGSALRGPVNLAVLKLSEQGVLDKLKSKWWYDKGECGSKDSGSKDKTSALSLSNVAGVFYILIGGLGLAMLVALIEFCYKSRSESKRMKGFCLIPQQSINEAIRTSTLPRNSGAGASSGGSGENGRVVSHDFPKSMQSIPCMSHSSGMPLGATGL
T2 sequence (P42261 19-906): as the sequence (P42261 19-906 isoform P42261-2 limits assumed) above, with G740N, S750N, V754L, S760N, K772G, D773G, S774G, G775D counted along it
T2 sequence (Q9Y698 whole entry): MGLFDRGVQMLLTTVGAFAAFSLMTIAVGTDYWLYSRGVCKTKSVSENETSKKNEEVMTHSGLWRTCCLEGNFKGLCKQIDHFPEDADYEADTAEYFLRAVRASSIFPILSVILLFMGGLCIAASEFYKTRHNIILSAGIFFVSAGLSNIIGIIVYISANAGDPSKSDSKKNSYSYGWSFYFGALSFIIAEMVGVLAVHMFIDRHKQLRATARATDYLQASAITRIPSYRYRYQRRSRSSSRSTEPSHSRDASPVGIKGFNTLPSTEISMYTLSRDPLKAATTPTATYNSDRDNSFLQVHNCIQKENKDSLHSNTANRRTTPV
T1 sequence (P42261 19-906): as the sequence (P42261 19-906 isoform P42261-2 limits assumed) above, with G740N, S750N, V754L, S760N, K772G, D773G, S774G, G775D counted along it
T1 sequence (Q8WXS5 whole entry): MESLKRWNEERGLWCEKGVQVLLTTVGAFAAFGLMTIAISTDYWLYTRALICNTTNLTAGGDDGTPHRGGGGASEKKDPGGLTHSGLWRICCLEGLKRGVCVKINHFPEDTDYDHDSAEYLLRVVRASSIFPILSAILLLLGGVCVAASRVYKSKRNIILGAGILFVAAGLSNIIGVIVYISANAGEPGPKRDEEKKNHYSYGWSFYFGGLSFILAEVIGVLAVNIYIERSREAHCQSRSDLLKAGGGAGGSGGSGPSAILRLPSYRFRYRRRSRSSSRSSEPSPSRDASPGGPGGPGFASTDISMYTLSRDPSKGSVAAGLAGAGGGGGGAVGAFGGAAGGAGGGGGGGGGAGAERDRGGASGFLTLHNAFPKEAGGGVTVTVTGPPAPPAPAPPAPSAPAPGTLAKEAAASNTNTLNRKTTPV

CC(c1ccc2[nH]c(=O)sc2c1)c1ccn(-c2ccc(N3CCC(O)CC3)cn2)n1 (single isomer, unassigned) [Example 3, 6-(1-(1-(5-(4-hydroxypiperidin-1-yl)pyridin-2-yl)-1H-pyrazol-3-yl)ethyl)benzo[d]thiazol-2(3H)-one]
IC50 [1]: 0.0911 ± 0.0481 µM | IC50 [2]: > 9.26 µM | IC50 [3]: > 9.26 µM | Percent reversal of Late Phase Licking ([4]; 1 mg/Kg): 32.3% | Percent reversal of Late Phase Licking ([4]; 3 mg/Kg): 43.8% | Percent reversal of Late Phase Licking ([4]; 10 mg/Kg): 66.2%

C[C@@H](c1ccc2[nH]c(=O)sc2c1)c1ccn(-c2ccc(CCO)cn2)n1 (single isomer, unassigned) [Example 27]
IC50 [1]: 0.0616 ± 0.0235 µM | IC50 [2]: > 9.26 µM | IC50 [3]: > 9.26 µM | Percent reversal of Late Phase Licking ([4]; 10 mg/Kg): 24.27% | Percent reversal of Late Phase Licking ([4]; 30 mg/Kg): 57.15% | Percent reversal of Late Phase Licking ([4]; 60 mg/Kg): 62.14%

CC(c1ccc2[nH]c(=O)sc2c1)c1ccn(-c2ccc(CCC(C)(C)O)cn2)n1 (single isomer, unassigned) [Example 30]
Percent reversal of Late Phase Licking ([4]; 3 mg/Kg): 8.88% | Percent reversal of Late Phase Licking ([4]; 10 mg/Kg): 11.77% | Percent reversal of Late Phase Licking ([4]; 30 mg/Kg): 47.77% | Percent reversal of Late Phase Licking ([4]; 60 mg/Kg): 62.14%

CC(c1ccc2[nH]c(=O)sc2c1)c1csc(-c2ccccn2)n1 (single isomer, unassigned) [Example 53, 6-[1-(2-pyridin-2-yl-thiazol-4-yl)-ethyl]-3H-benzothiazol-2-one]
IC50 [1]: 0.0656 ± 0.0149 µM | IC50 [2]: > 9.26 µM | IC50 [3]: > 9.26 µM

CC(=O)c1ccc(-c2csc(C(C)c3ccc4[nH]c(=O)sc4c3)n2)nc1 (single isomer, unassigned) [Example 54, 6-[1-[4-(5-acetyl-2-pyridyl)thiazol-2-yl]ethyl]-3H-1,3-benzothiazol-2-one]
IC50 [1]: 0.0826 ± 0.0562 µM | IC50 [2]: > 9.26 µM | IC50 [3]: > 9.26 µM

CC(O)COCc1ccc(-n2ccc(C(C)c3ccc4[nH]c(=O)sc4c3)n2)nc1 (single isomer, unassigned) [Example 55, 6-[1-[1-[5-(2-hydroxypropoxymethyl)-2-pyridyl]pyrazol-3-yl]ethyl]-3H-1,3-benzothiazol-2-one]
Percent reversal of Late Phase Licking ([4]; 3 mg/Kg): 25.64% | Percent reversal of Late Phase Licking ([4]; 10 mg/Kg): 31.08% | Percent reversal of Late Phase Licking ([4]; 30 mg/Kg): 63.47%

COc1cccc(C2(O)CCCCC2CN(C)C)c1 (centres unmarked) [Tramadol, tramadol, reference compound]
Percent reversal of Late Phase Licking ([4]; positive control 80 mg/Kg Tramadol, one value per experiment (Examples 3, 27, 30, 55)): 94.7% and 86.97% and 57.96% and 81.84%
